Measurements: patent US11110070B2 (priority 2015, dated 2021)
Entries after “also recorded” stand apart in the source; their conditions may differ. Structures can show the parent of a compound that is named as a salt.

Key:
129S6/SvEvTac mice [1] = assay: Forced swim test (FST) in social defeat (SD) model; format: in vivo
Method: Experiment 1 (Pre-ketamine in social defeat (SD)): At 8 weeks of age, a single injection of saline (0.9% NaCl) or ketamine (K) (10, 30, or 90 mg kg^−1) (Ketaset III, Ketamine HCl, Fort Dodge Animal Health, Forth Dodge, Iowa) was administered. Ketamine was prepared in physiological saline and all injections were administered intraperitoneally (i.p.) in volumes of 0.1 cc per […]. […] At 9 weeks of age, 1 week following this injection, SD was started.
24 h after the last bout of SD, a single injection of saline or ketamine (30 mg kg^−1) was administered (mice were 11 weeks old). The forced swim test (PST) was administered 2 h following the injection.
(§1) Experiment 3 (Pre-fluoxetine in SD): At 6 weeks of age, fluoxetine hydrochloride (Fix) (BioTrend Chemicals AG, B6197) was administered in the drinking water (18 mg kg^−1/day) for 3 weeks before the start of SD. Starting at 9 weeks of age, SD was then administered for 2 weeks without vehicle or Flx in the drinking water.
(§2) Adult aggressor CD-1 male mice were single-housed in Macrolon® polycarbonate resin cages (15.25 in×7.8 in×9.5 in) (Animal Care Systems, Inc., Centennial, Colo.). Male 129S6/SvEvTac mice (9 weeks of age) were subsequently placed into the resident. CD-1 mouse's cage. Three antagonistic encounters were allowed between the CD-1 mouse and the intruder. Each of these encounters typically lasted less than 5 min. Following the encounters, mice were separated by a polished stainless steel cage divider (Animal Care Systems, Inc., Centennial, Colo., P/N C79171), which allowed for olfactory and auditory communication, but limited visual or tactile contact. The partition was removed daily for 2 weeks and 3 antagonistic encounters were allowed between the mice each day. This procedure consistently yielded a submissive phenotype in the experimental intruder mice. Control (Ctrl) mice were group housed 4 to 5 per cage in Macrolon® polycarbonate resin cages without dividers.
The FST was administered as previously described (A11). Briefly, mice were placed into clear plastic buckets 20 cm in diameter and 23 cm deep filled ⅔ of the way with 22° C. water. Mice were videotaped, from the side for 6 min and were exposed to the swim test on 2 consecutive days. For the SI) experiments, scoring was performed using an automated Viewpoint Videotrack software package (http://www.viewpoint.fr/en/a/anxiety-and-depression). For the CORT experiments, automated scoring was done using the automated X'PERT EST software suite (Bioseb, Vitrolles, France). The dependent variable was immobility.

129S6/SvEvTac mice [2] = assay: Fighting behavior during SD bouts; format: in vivo; conditions: SD-Flx vs SD-Veh
Method: as §2

C57BL/6NTac mice [3] = assay: FST in chronic corticosterone (CORT) model; format: in vivo; conditions: ketamine 90 mg kg^−1 or fluoxetine 18 mg kg^−1/day, before 3 weeks of CORT; hydrochloride
C57BL/6NTac mice [4] = assay: NSF in CORT model; format: in vivo; conditions: treatment after 4 weeks of CORT; 14 days after the start of treatment
Method: Experiment 5 (Pre-ketamine and pre-fluoxetine corticosterone (CORT)): C57BL16NTac mice were injected with ketamine (10, 30, 90 mg kg^−1, i.p.) 1 week before the start of CORT, or administered fluoxetine (18 mg kg^−1 per day) in the drinking water for 3 weeks before the start of CORT. Ketamine was purchased from Merial (100 mg/ml stock solution). Fluoxetine hydrochloride (160 μg/mL, equivalent to 18 mg kg^−1 per day in the drinking water) was purchased from Anawa Trading (Zurich, Switzerland) and dissolved in 0.45% hydroxypropyl-β-cyclodextrin (β-CD) (Sigma-Aldrich, Saint-Quentin Fallavier, France) solution. Following ketamine or fluoxetine treatment, CORT was administered for 3 weeks in the drinking water. CORT (4-pregnen-11b-DIOL-3 20-DIONE 21-hemisuccinate) (35 μg/ml) from. Sigma Aldrich (Saint-Quentin Fallavier, France) was dissolved in vehicle (0.45% β-CD). Control animals received vehicle (0.45% β-CD) throughout the duration of the experiment. […]
Testing was performed as previously described (A13). […] The latency of the mice to begin eating was recorded. Immediately after the latency was recorded, the food pellet was removed from the arena. The mice were then placed into a cage and the amount of food consumed in 5 min was measured (home cage consumption), followed by an assessment of post-restriction weight. […]

C57BL/6NTac mice [5] = assay: EPM in CORT model; format: in vivo; conditions: ketamine or fluoxetine before CORT
Method: Experiment 5 (Pre-ketamine and pre-fluoxetine corticosterone (CORT)): C57BL16NTac mice were injected with ketamine (10, 30, 90 mg kg^−1, i.p.) 1 week before the start of CORT, or administered fluoxetine (18 mg kg^−1 per day) in the drinking water for 3 weeks before the start of CORT. Ketamine was purchased from Merial (100 mg/ml stock solution). Fluoxetine hydrochloride (160 μg/mL, equivalent to 18 mg kg^−1 per day in the drinking water) was purchased from Anawa Trading (Zurich, Switzerland) and dissolved in 0.45% hydroxypropyl-β-cyclodextrin (β-CD) (Sigma-Aldrich, Saint-Quentin Fallavier, France) solution. Following ketamine or fluoxetine treatment, CORT was administered for 3 weeks in the drinking water. CORT (4-pregnen-11b-DIOL-3 20-DIONE 21-hemisuccinate) (35 μg/ml) from. Sigma Aldrich (Saint-Quentin Fallavier, France) was dissolved in vehicle (0.45% β-CD). Control animals received vehicle (0.45% β-CD) throughout the duration of the experiment.
Testing was performed as previously described (A14). […] For the 12956/SvEv experiments, videos were scored using behavioral tracking software (TopScan, CleverSys, Reston, Va.). For the C57BL/6Ntac experiments, all parameters were measured using a videotracker (EPM3C. Bioseb, Vitrolles, France).

[6] = Body weight in CORT model; format: in vivo, mice; conditions: ketamine 90 mg kg^−1 single injection or fluoxetine 18 mg kg^−1 for 3 weeks, before CORT
C57BL/6NTac mice [7] = assay: Tail suspension test (TST) after CORT; format: in vivo; conditions: after 4 weeks of CORT; ketamine 10 mg kg^−1 one injection or fluoxetine 18 mg kg^−1 per day; both time points
Method: Experiment 6 (Post-ketamine and post-fluoxetine in CORT); In C57BL/6NTac mice. vehicle or CORT was administered for 4 weeks in the drinking water. While administration with 0.45% β-CD or CORT continued, mice were injected with saline or ketamine (10 mg kg^−1), or were administered vehicle or chronic fluoxetine (18 mg kg^−1 per day in the drinking water).
The TST was administered as previously described (A2). Briefly, animals were suspended for 6 min and immobility during this period was assessed using an automated TST apparatus (Bioseb, Vitrolles, France). A specific strain gauge linked to a computer quantifies the time spent by each mouse trying to escape.

129S6/SvEvTac mice [8] = assay: Other behaviors following fluoxetine treatment before SD; format: in vivo; conditions: fluoxetine 3 weeks before SD
Method: as §1

129S6/SvEv mice = assay: FST after prophylactic ketamine or ketamine metabolites (FIG. 15); format: in vivo; conditions: at 10 and 30 mg/kg

SMILES | immobility time, day 2 of FST (129S6/SvEvTac mice [1]; Ctrl mice, fluoxetine 18 mg kg^−1 for 3 weeks, vs Ctrl-Veh) | immobility time, day 2 of FST (129S6/SvEvTac mice [1]; SD mice, fluoxetine 18 mg kg^−1 for 3 weeks before SD) | behavior during SD bouts (129S6/SvEvTac mice [2]) | immobility time on day 2 in the FST (C57BL/6NTac mice [3]) | latency to feed in NSF (C57BL/6NTac mice [4]) | time in the closed arms of EPM (anxiety-like phenotype) (C57BL/6NTac mice [5]) | CORT-induced increase in body weight [6] | immobility time in the TST (C57BL/6NTac mice [7]) | anxiety or cognition (129S6/SvEvTac mice [8]) | prophylactic efficacy (behavioral despair, FST) (129S6/SvEv mice)
CNCCC(Oc1ccc(C(F)(F)F)cc1)c1ccccc1 (stereo not shown) [fluoxetine, fluoxetine hydrochloride] | equal levels of immobility time | did not improve immobility time | do not display differences during SD bouts | decreased immobility time; also recorded: significantly reduced immobility | decreased the latency to feed | Neither ketamine nor fluoxetine robustly protected | prevented the CORT-induced increase in body weight | decreased immobility time in the TST | did not significantly alter anxiety or cognition | –
N[C@@]1(c2ccccc2Cl)CCC[C@@H](O)C1=O [HNK, (2R,6R)-hydroxynorketamine] | – | – | – | – | – | – | – | – | – | efficacious as prophylactics
